{
  "source": "paper PMC6506705",
  "about": "(2019)",
  "key": {"[1]": {"system": "EA#14.3K42 non-labelled (DNA, aptamer) ATACCAGCTTATTCAATTTGAGGCGGGTGGGTGGGTTGAATA", "assay": "dye fluorescence melting profile, qualitative", "details": "100 mM NaCl; 20 mM TRIS, 0.02% Tween 20, pH 7.6; 10x dye; 0.5-4 μM aptamer"}, "[2]": {"system": "EA#14.3K31 non-labelled (DNA, aptamer) ATTCAATTTGAGGCGGGTGGGTGGGTTGAAT", "assay": "dye fluorescence melting profile, qualitative", "details": "100 mM NaCl; 20 mM TRIS, 0.02% Tween 20, pH 7.6; 10x dye; 0.5-4 μM aptamer"}},
  "data": [
    {"smiles": "CCCN(CCCN(C)C)c1cc(C=C2Sc3ccccc3N2C)c2ccccc2[n+]1-c1ccccc1", "values": [
      {"measurement": "binding", "setting": "[1]", "value": "yes"},
      {"measurement": "binding", "setting": "[2]", "value": "yes"}
    ]}
  ]
}
